Measurements published in article PMC12455078, “Synthesis, pharmacokinetic studies, and metabolite analysis of meridianin C in rats using a validated ultra high performance liquid chromatography-tandem mass spectrometry method” (Frontiers in Pharmacology, 2025).

Tests used:
[1] = Pharmacokinetics of MC and its metabolites in rat plasma after a single oral dose of MC (UHPLC-MS/MS); assay type: in vivo, Sprague Dawley rats; conditions: for Tmax / half-life / Cmax / AUC(0-t): male, Sprague Dawley, single oral (intragastric) 100 mg/kg MC; for Tmax / half-life: n = 6; for Cmax: n = 6, metabolites quantified with the MC calibration curve; for AUC(0-t): n = 6, non-compartmental, metabolites quantified with the MC calibration curve, read-out: AUC0–48h; for AUC0–48h fold less than that of MC / Concentration in plasma samples relative to limit of quantification: single oral 100 mg/kg MC
Description: Sprague Dawley rats (male, 220–250 g) were purchased from the SPF Biotechnology Co., Ltd. (Beijing, China). Animals were acclimated under controlled conditions (temperature 22 °C ± 2 °C, humidity 50%–60%, 12 h light cycle) with unlimited fodder and water access for 7 days. The animal experiments were approved by the Animal Experiment Ethics Review Committee of Jiangsu Vocational College of Medicine, Yancheng, China (LLSQ-2021-031106).
After fasting overnight, six rats were orally administered 100 mg/kg MC suspended in 0.5% carboxymethyl cellulose sodium solution (10.0 mg/mL). Blood samples (about 300 μL) were collected into heparinized polythene tubes from the suborbital vein at 0, 0.25, 0.5, 1, 2, 3, 4, 8, 12, 24, 36 and 48 h after administration. All samples were immediately centrifuged at 6,125 g for 5 min at 4 °C to acquire plasma. The plasma samples were preserved at − 80 °C until further analysis.
For the measurement of the concentrations of MC and its metabolites, three times volume of methanol, containing 20 µL IS (puerarin, 2,160.0 ng/mL), were added to 100 µL plasma samples to precipitate protein. After vortexing for 2 min, the mixtures were centrifuged at 6,125 g for 10 min at 4 °C. The obtained supernatants were transferred to fresh tubes and allowed to be dried at room temperature by a nitrogen blowing instrument. Then, the remaining residues were re-dissolved with 100 µL methanol–water (80:20, v/v). Following centrifugation at 16,173 g for 10 min, the supernatants were transferred and used for UHPLC/[…] assessment. The injection volume of each sample was 1 μL.
The UHPLC-MS system comprised of an Acquity UPLC system (Waters, Milford, United States) and Waters TQD tandem mass spectrometer equipped with an electrospray ionization (ESI) source. A Waters ACQUITY BEH C18 column (100 × 2.1 mm, 1.7 μm, Waters, Milford, United States) was used for the chromatography separation. The column temperature was set to 40 °C. The mobile phase was composed of 0.1% formic acid in water (A) and 0.1% formic acid in acetonitrile (B) with a fixed flow rate at 0.4 mL/min. A gradient elution program was used as follows: 0–1.5 min, 5%–20% B; 1.5–5 min, 20%–30% B; 5–7 min, 30%–95% B; 7–9 min, 95% B; 9–11 min, 95% B.
The MS tune parameters were set as mentioned below. The desolvation of the source temperatures was set at 500 °C. The flow rate of nebulization gas was 650 L/h. The capillary voltage was set at 2.8 kV in the positive ionization mode. The cone voltages were maintained at 35 V for all the tested ingredients. All data were obtained via the multiple reaction monitoring (MRM) ion mode. The range of m/z for the data collection was set at 100–1,500 Da. Transitions, cone voltage and a collision energy of MC and its metabolites were optimized (Table 2). The mass spectrum of MC and the chemical structures of its MS/MS fragments is shown in Figure 4, and The mass spectrum of puerarin and the chemical structures of its MS/MS fragments is shown in Figure 5. MassLynx™ software version 4.1 was used for data acquisition and TargetLynx™ (Waters, Milford, MA, United States) was applied to quantitation.
The concentrations of MC in the collected plasma samples were quantified by the established calibration curve based on peak areas of corresponding components. Owing to the lack of corresponding standards, calibration curves for the metabolites were not established. It has been reported that the concentrations of the metabolites could be quantified according to calibration curve of parent drug. This is possible due to the structural similarity of their parent nucleus ([Zhang et al., 2015]). Therefore, in this study, the concentrations of the metabolites were calculated via the calibration curve of MC. The main pharmacokinetic parameters of MC and its metabolites were calculated via a non-compartmental model with the pharmacokinetic software, DAS (ver. 2.0, Chinese Pharmacology Association, Shanghai, China). […]

[2] = Stability of MC in rat plasma QC samples under storage conditions; assay type: in vitro ADME; conditions: for Stability (re, %) 20 °C–25 °C/24 h / Stability (re, %) −20 °C/30 days / Stability (re, %) Freeze-thaw (3 cycles): n = 3; for Stability (re, %) Freeze-thaw (3 cycles): −20 °C to ambient temperature
Description: MC, accurately weighted, was firstly dissolved in methanol to acquire the standard stock solutions (250 μg/mL). A set of standard working solutions (25,000.0 ng/mL, 12,500.0 ng/mL, 2,500.0 ng/mL, 1,250.0 ng/mL, 625.0 ng/mL, 250.0 ng/mL, 125.0 ng/mL, 31.25 ng/mL) were obtained by diluting the stock solutions with methanol. An aliquot of 20 µL of these standard working solutions was then spiked into 1.5 mL polythene tubes and the solvent of methanol was evaporated at room temperature. Afterwards, the calibration standards (5,000.0 ng/mL, 2,500.0 ng/mL, 500.0 ng/mL, 250.0 ng/mL, 125.0 ng/mL, 50.0 ng/mL, 25.0 ng/mL, 6.25 ng/mL) were obtained by adding blank plasma (100 µL) into the tubes and fully mixing. The preparation method of quality control samples (QCs, 25.0 ng/mL, 1,250.0 ng/mL, 4,000.0 ng/mL) was identical with that of the calibration standards. All solutions were stored at 4 °C until further use.
All method validation procedures were performed strictly in accordance with the US FDA Guidance for Industry on Bioanalytical Method Validation ([FDA, 2018]). The assessment of selectivity was performed via comparing chromatograms among blank rat plasma (six different batches) and rat plasma spiked with MC and IS. The evaluation of linearity was carried out using weighted (1/x^2) least-squares analysis of two sets of calibration standards. Three different concentrations of Quality Check: QCs (n = 6) standards were used and detected on three different days to evaluate the intra-day and inter-day precision and the accuracy. Similarly, matrix effect and extraction recovery were assessed using three different concentrations of QCs (n = 6). The matrix effect was evaluated via calculating the peak area ratio of MC in post-spiked QCs and the solvent-substituted samples with same concentration. The extraction recovery was assessed via calculating the peak area ratio of MC in pre-spiked and post-spiked QCs. The stability of MC was examined using three concentrations of QCs (n = 3) under three different storage conditions, including freeze-thaw stability (three cycles from −20 °C to ambient temperature), short-term stability (storage at 20 °C–25 °C for 24 h), and long-term stability (storage at −20 °C for 30 days).
The stability was estimated by analyzing QCs (25.0, 1,250.0, and 4,000.0 ng/mL) after storing in three different conditions: three freeze-thaw cycles (−20 °C to ambient temperature), 20 °C–25 for 24 h, and - 20 °C for 30 days. As presented in Table 5, the deviations in the stabilities of MC ranged from - 8.5% to 13.5% under the three different storage conditions.

[3] = set-up: method as in Hasa et al., 2013; conditions: ref Hasa et al., 2013; cited from earlier work

Compound | Tmax [1] | half-life [1] | Cmax [1] | AUC(0-t) [1] | AUC0–48h fold less than that of MC [1] | Concentration in plasma samples relative to limit of quantification [1] | further results
Nc1nccc(-c2cn(OS(=O)(=O)O)c3ccc(Br)cc23)n1 [M2] | 0.5 ± 0.27 h | 4.4 ± 2.7 h | 6.4 ± 2 µM | 20.9 ± 8.5 µM·h | 11.1 fold | – | –
Nc1nccc(-c2cn(O)c3ccc(Br)cc23)n1 [M3] | – | – | – | – | – | lower than the limit of quantification | –
ONc1nccc(-c2cn(O)c3ccc(Br)cc23)n1 [M8] | – | – | – | – | – | lower than the limit of quantification | –
O=S(=O)(O)ONc1nccc(-c2c[nH]c3ccc(Br)cc23)n1 [M11] | 0.88 ± 0.63 h | 3.4 ± 2.2 h | 1.6 ± 0.6 µM | 4 ± 1.1 µM·h | 58.7 fold | – | –
Nc1nccc(-c2c[nH]c3ccc(Br)cc23)n1 [MC, Meridianin C] | 0.75 ± 0.27 h | 17.7 ± 14.1 h | 44.8 ± 7 µM | 232 ± 85.9 µM·h | – | – | Stability (re, %) 20 °C–25 °C/24 h ([2]; rat plasma, 25.0 ng/mL): 12.5%; Stability (re, %) −20 °C/30 days ([2]; rat plasma, 25.0 ng/mL): 10.6%; Stability (re, %) Freeze-thaw (3 cycles) ([2]; rat plasma, 25.0 ng/mL): 13.5%; Stability (re, %) 20 °C–25 °C/24 h ([2]; rat plasma, 1,250.0 ng/mL): 7.9%; Stability (re, %) −20 °C/30 days ([2]; rat plasma, 1,250.0 ng/mL): 5.2%; Stability (re, %) Freeze-thaw (3 cycles) ([2]; rat plasma, 1,250.0 ng/mL): 12.6%; Stability (re, %) 20 °C–25 °C/24 h ([2]; rat plasma, 4,000.0 ng/mL): −6.8%; Stability (re, %) −20 °C/30 days ([2]; rat plasma, 4,000.0 ng/mL): −8.5%; Stability (re, %) Freeze-thaw (3 cycles) ([2]; rat plasma, 4,000.0 ng/mL): 9.3%; Stability in rat plasma (in words) ([2]; three freeze-thaw cycles, 20 °C–25 °C for 24 h, −20 °C for 30 days): stable
CC[C@]12CCCN3CCc4c(n(c5ccccc45)[C@@](O)(C(=O)OC)C1)[C@@H]32 [vincamine] | – | – | – | – | – | – | Bioavailability [3]: low bioavailability
